Test results as given in article PMC8264259, “A Novel Ruthenium(II) Complex With Lapachol Induces G2/M Phase Arrest Through Aurora-B Kinase Down-Regulation and ROS-Mediated Apoptosis in Human Prostate Adenocarcinoma Cells” (Frontiers in Oncology, 2021).

Key:
DU-145 cells [1] = experiment: Gene expression analysis by qPCR array (Human Cancer Drug Targets); type: cell-based; conditions: DU-145, 1.0 µM, 12 h, mRNA, ΔΔCt vs vehicle
Procedure: Briefly, DU-145 cells were seeded (1.0 × 10^6 cells/well) into six-well plates and maintained to attach at 37°C in 5% CO2. After 24 h, the cells were treated with 1.0 μM of the complex (2). DMSO (0.1% v/v) was used as the vehicle control. After 12 h of incubation, total RNA was isolated from the cells using the RNeasy® Mini kit (Qiagen, Germany) according to the manufacturer’s instructions. RNA was quantified by NanoDrop spectrophotometer (ND-2000; Thermo Fischer Scientific). The Agilent 2100 Bioanalyzer and Agilent RNA 6000 Nanochip kits were used to assess the total RNA quality as per manual instruction (Agilent, USA). The Agilent 2100 Expert software (Version B.02.07.SI532) was used with the Eukaryote Total RNA Nano assay on the Agilent 2100 bioanalyzer. No significant differences in RIN values were observed across the samples. Complementary DNA strands were synthesized using the RT^2 First Strand kit (Qiagen, Germany), following the manufacturer’s instructions. Gene expression profiling was performed using the RT^2 Profiler™ PCR Array Human Cancer Drug Targets (PAHS 507Z, Qiagen) by qPCR. The reactions were conducted in the Applied Biosystems 7500 PCR System (Applied Biosystems, USA) thermocycler. The plate was heated to 95°C for 10 min, followed by 40 cycles of 95°C for 15 s and 60°C for 1 min, followed by the dissociation curve. The expression profile of 84 key drug targets genes was analyzed. Fold changes amplification for targeted genes was normalized to the housekeeping genes GAPDH and RPLP0 by the delta–delta cycle threshold method (ΔΔCt), and the cells treated with vehicle control (0.1% of DMSO v/v) was used as calibrator. The threshold cycle values of control wells were all within the ranges recommended by the PCR array user manual. Three independent biological replicates were performed. All experiments were performed in DNase/RNase free conditions. Genes were considered differentially regulated if the difference was ≥1.8-fold, which means that the gene expression in the compound-treated cells was at 1.8-fold that in the negative control-treated cells. Differences were considered significant at p ≤ 0.05. Statistical analysis of two groups was performed automatically according to the GeneGlobe Data Analysis Center (Qiagen, USA; https://geneglobe.qiagen.com/us/analyze).

DU-145 cells [2] = experiment: Cellular ROS/Superoxide detection; type: cell-based, human
Procedure: Total intracellular ROS generation was measured using 2′,7′-dichlorodihydrofluorescein diacetate (H2DCFDA, Sigma-Aldrich), as reported by ([36]). Briefly, DU-145 cells were seeded (1.5 × 10^4 cells/well) into black 96-well plates and maintained to attach at 37°C in 5% CO2. […] After that, cells were labeled with H2DCFDA solution at 5 μM in N,N-dimethylformamide (Sigma-Aldrich). After that, fluorescence intensity was measured in a Synergy H1 Fluorescence Spectrophotometer (BioTek®), at the excitation and emission wavelengths of 495 and 527 nm, respectively. Thereafter, ROS/Superoxide levels were measured using Cellular ROS/Superoxide Detection Assay Kit (Abcam®). Cells were seeded (1.5 × 10^4 cells/well) into black 96-well plates and maintained to attach at 37°C in 5% CO2. After 24 h, cells were treated with complex (2) (0.25, 0.50, 1.0, and 1.5 μM) for 24 h. […] Fluorescence was measured in quadruplicates using a fluorescent microplate reader Synergy H1 (BioTek®) with standard fluorescein (Ex = 488 nm, Em = 520 nm) and rhodamine (Ex = 550 nm, Em = 610 nm) filter sets for ROS and superoxide determination, respectively. […] Cells were labeled as described above, and the ROS levels were measured. […] After 24 h of treatment, the cell viability was determined by Alamar blue® assay as described above.

CC(C)=CCC1=C([O-])C(=O)c2ccccc2C1=O.F[P-](F)(F)(F)(F)F.[Ru+2].c1ccc(P(CP(c2ccccc2)c2ccccc2)c2ccccc2)cc1.c1cnc2c(c1)ccc1cccnc12 [complex (2), [Ru(Lap)(dppm)(phen)]PF6]
Fold change, AKT1 (DU-145 cells [1]): −2.6 fold | Fold change, AKT2 (DU-145 cells [1]): −2.6 fold | Fold change, AURKA (DU-145 cells [1]): -5.3 fold | Fold change, AURKB (DU-145 cells [1]): -11.1 fold | Fold change, AURKC (DU-145 cells [1]): -3.0 fold | Fold change, BCL2 (DU-145 cells [1]): -4.1 fold | Fold change, BIRC5 (DU-145 cells [1]): -6.4 fold | Fold change, CDC25A (DU-145 cells [1]): −2.6 fold | Fold change, CDK1 (DU-145 cells [1]): -4.5 fold | Fold change, CDK2 (DU-145 cells [1]): −2.7 fold | Fold change, CDK4 (DU-145 cells [1]): -4.6 fold | Fold change, CDK5 (DU-145 cells [1]): −3.2 fold | Fold change, EGFR (DU-145 cells [1]): −4.1 fold | Fold change, ERBB2 (DU-145 cells [1]): −2.4 fold | Fold change, GSTP1 (DU-145 cells [1]): −2.9 fold | Fold change, HDAC8 (DU-145 cells [1]): −1.8 fold | Fold change, IGF1R (DU-145 cells [1]): −2.7 fold | Fold change, MDM4 (DU-145 cells [1]): 2.8 fold | Fold change, MTOR (DU-145 cells [1]): −3.8 fold | Fold change, PARP1 (DU-145 cells [1]): −2.7 fold | Fold change, PARP2 (DU-145 cells [1]): −3.0 fold | Fold change, PDGFRB (DU-145 cells [1]): −2.0 fold | Fold change, PIK3CA (DU-145 cells [1]): −2.7 fold | Fold change, PTGS2 (DU-145 cells [1]): 2.1 fold | Fold change, TOP2A (DU-145 cells [1]): −2.1 fold | Fold change, TOP2B (DU-145 cells [1]): −2.8 fold | total ROS levels (DU-145 cells [2]; DU-145, 24 h exposure): significantly higher | intracellular ROS with ROS scavenger NAC (DU-145 cells [2]; DU-145, cotreatment with 5 mM NAC, 24 h): inhibited the formation of intracellular ROS
